Test results from US8877763B2, “Substituted pyridopyrimidine compounds and their use as FLT3 inhibitors” (Genosco, priority 2012, dated 2014).
Substitutions are numbered along the chain they refer to. Counter-ions that a name gives are not always drawn.

Columns and labels:
[1] = molecular target: T1, FLT3 mutant D835Y (Homo sapiens, UniProt P36888, D835Y); assay: Inhibition of enzymatic FLT3 mutant D835Y kinase activity (Lance Ulight TR-FRET); format: biochemical
T1 construct: Truncated human FLT3 wildtype, mutant D835Y; purchased Carna Biosciences
T1 sequence (P36888 564-993 D835Y limits assumed): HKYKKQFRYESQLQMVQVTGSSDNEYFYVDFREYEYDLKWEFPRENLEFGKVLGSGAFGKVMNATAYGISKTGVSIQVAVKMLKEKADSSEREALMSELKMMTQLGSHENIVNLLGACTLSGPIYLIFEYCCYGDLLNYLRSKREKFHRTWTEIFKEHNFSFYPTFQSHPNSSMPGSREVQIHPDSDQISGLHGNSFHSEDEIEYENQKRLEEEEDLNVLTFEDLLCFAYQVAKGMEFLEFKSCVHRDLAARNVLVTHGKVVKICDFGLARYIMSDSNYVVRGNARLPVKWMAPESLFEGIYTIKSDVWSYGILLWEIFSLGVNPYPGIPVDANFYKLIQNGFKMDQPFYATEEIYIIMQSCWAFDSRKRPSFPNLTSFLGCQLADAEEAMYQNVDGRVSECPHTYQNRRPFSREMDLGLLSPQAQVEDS
Protocol: (§1) Compounds of the invention were initially diluted to 10 mM in 100% DMSO (CALBIOCHEM™) for storage and made into kinase buffer solution to create a compound concentration ranging from 1 uM and 10 uM. Serial dilutions of compounds of the invention were dispensed into a 96-well plate (GREINER BIOSCIENCES™) at 6 μL each.

[2] = system: MV4-11 cells expressing human FLT3-ITD; assay: Cell viability assay: inhibition of FLT3-ITD-positive cells (ATPLite); format: cell-based; conditions: 72 hour incubation
Protocol: Compounds of the invention were tested for cell viability effect on MV4-11 cells. For cell viability assay, MV4-11 cells expressing human FLT3-ITD were obtained from the American Type Culture Collection (ATCC, Manassas, Va.). This cell line was maintained with an Roswell Park Memorial Institute (RPMI) medium (HyClone™) containing 10 bovine calf serum (BCS; Hyclone™) supplemented iron. The MV4-11 cells were seeded at 2×10^4 cells in 96-well culture plates, and serially diluted compound was then added. After a 72 hour incubation period at 37° C., cell viability was measured using the ATPLite 1 step assay (Perkin-Elmer™) that is based on the quantification of ATP from viable cells. CellTiter Aqueous assay (Promega™) was also performed in parallel as an orthogonal assay. IC50 values were calculated using nonlinear regression and defined as the concentration needed for a 50 reduction in luminescence or absorbance treated versus untreated control cells (Prism™ Software).

[3] = molecular target: T2, JAK2 (Homo sapiens, UniProt O60674); assay: Inhibition of enzymatic JAK2 kinase activity (Lance Ulight TR-FRET); format: biochemical
T2 construct: Truncated human FLT3 wildtype, mutant D835Y, and JAK2; purchased Carna Biosciences
T2 sequence (O60674 826-1132 limits assumed): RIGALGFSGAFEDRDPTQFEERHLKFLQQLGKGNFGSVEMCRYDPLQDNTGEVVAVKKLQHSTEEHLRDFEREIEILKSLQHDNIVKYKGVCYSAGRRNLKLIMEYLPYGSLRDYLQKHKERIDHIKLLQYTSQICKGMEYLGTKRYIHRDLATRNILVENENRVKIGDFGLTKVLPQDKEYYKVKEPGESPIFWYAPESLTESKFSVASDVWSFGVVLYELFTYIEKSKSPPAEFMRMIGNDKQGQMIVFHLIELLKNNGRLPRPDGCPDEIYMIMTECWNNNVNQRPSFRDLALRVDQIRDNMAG
Protocol: as §1

[4] = molecular target: T3, Truncated human FLT3 wildtype (Homo sapiens, UniProt P36888); assay: Inhibition of enzymatic FLT3 wildtype kinase activity (Lance Ulight TR-FRET); format: biochemical
T3 construct: Truncated human FLT3 wildtype; purchased Carna Biosciences
T3 sequence (P36888 564-993 limits assumed): T1 sequence (P36888 564-993 D835Y limits assumed) with Y272D
Protocol: as §1

[5] = system: MV4-11 cell line of FLT3-ITD; assay: Xenograft mouse model using MV4-11 cell line; format: in vivo, Balb/C nude mice; conditions: for Means of Tumor Volume / Percent Tumor Regression (PTR %): 30 mg/kg every day
Protocol: Compounds of the invention were tested in xenograft mouse model using MV4-11 cell line of FLT3-ITD. All male animals of 6 weeks old Balb/C nude mice were housed in plastic cages (4˜6 mice/cage) containing corn cob and maintained in a pathogen-free facility (20˜25° C., 30˜70% humidity) with a 12 hour light:dark cycle. Tumor model was established by subcutaneous injection with MV4-11 cell suspension. When the average tumor volume reached approximately 400 mm^3 (˜5 weeks post tumor implantation), the tumor bearing-mice were assigned 2 groups (9 mice per each). The compound 238 treatment of 30 mg/kg every day was initiated and continue for 28 days. The vehicle 20% hydroxyl-β-cyclodextrin was used. Tumor volume was measured twice weekly. Where applicable, percent tumor regression (PTR) for each group will be calculated by the formula: PTR=100×(tumor volumeinitial−tumor volumefinal)/(tumor volumeinitial).

Compound: CN1CCC(Nc2nc(Nc3ccc(OCc4ccccc4)cc3)c3c(=O)[nH]cc(Br)c3n2)CC1 [Compound 221, 4-((4-(benzyloxy)phenyl)amino)-8-bromo-2-((1-methylpiperidin-4-yl)amino)pyrido[4,3-d]pyrimidin-5(6H)-one]
- IC50 [1]: 0.4 nM
- IC50 ([2]; Homo sapiens, MV4-11, 72 h): 2.4 nM
- IC50 [3]: 290 nM
- IC50 [4]: 0.1 nM

Compound: CN1CCC(Nc2nc(Nc3ccc(OC4CCCC4)cc3)c3c(=O)[nH]cc(Br)c3n2)CC1 [Compound 223, 8-bromo-4-((4-(cyclopentyloxy)phenyl)amino)-2-((1-methylpiperidin-4-yl)amino)pyrido[4,3-d]pyrimidin-5(6H)-one]
- IC50 [1]: 0.3 nM
- IC50 [3]: 153 nM
- IC50 [4]: 0.6 nM

Compound: Cc1ccc(Oc2ccc(Nc3nc(NC4CCN(C)CC4)nc4c(Br)c[nH]c(=O)c34)cc2)cc1 [Compound 225, 8-bromo-2-((1-methylpiperidin-4-yl)amino)-4-((4-(p-tolyloxy)phenyl)amino)pyrido[4,3-d]pyrimidin-5(6H)-one]
- IC50 [1]: 1.6 nM
- IC50 [3]: 1520 nM
- IC50 [4]: 0.3 nM

Compound: CN1CCC(Nc2nc(Nc3ccc(Oc4ccccc4)cc3)c3c(=O)[nH]cc(Br)c3n2)CC1 [Compound 226, 8-Bromo-2-(1-methylpiperidin-4-ylamino)-4-(4-phenoxyphenylamino)pyrido[4,3-d]pyrimidin-5(6H)-one hydrochloride]
- IC50 [3]: 281 nM

Compound: CN1CCC(Nc2nc(Nc3ccc(OC4CCCCC4)cc3)c3c(=O)[nH]cc(Br)c3n2)CC1 [Compound 228, 8-bromo-4-((4-(cyclohexyloxy)phenyl)amino)-2-((1-methylpiperidin-4-yl)amino)pyrido[4,3-d]pyrimidin-5(6H)-one]
- IC50 [1]: 0.6 nM
- IC50 [2]: 0.8 nM
- IC50 [3]: 129 nM
- IC50 [4]: 0.1 nM

Compound: CN1CCC(Nc2nc(Nc3ccc(OC4CCCCC4)cc3)c3c(=O)[nH]cc(Br)c3n2)CC1 [Compound 233, 8-bromo-4-((4-(cyclohexyloxy)phenyl)amino)-2-((1-methylpiperidin-4-yl)amino) pyrido[4,3-d]pyrimidin-5(6H)-one hydrochloride]
- IC50 [1]: 0.3 nM
- IC50 ([2]; Homo sapiens, MV4-11, 72 h): 1.4 nM
- IC50 [3]: 173 nM

Compound: CN1CCC(Nc2nc(Nc3ccc(OCC4CCCC4)cc3)c3c(=O)[nH]cc(Br)c3n2)CC1 [Compound 235, 8-bromo-4-((4-(cyclopentylmethoxy)phenyl)amino)-2-((1-methylpiperidin-4-yl)amino)pyrido[4,3-d]pyrimidin-5(6H)-one]
- IC50 ([2]; Homo sapiens, MV4-11, 72 h): 1.6 nM

Compound: CN1CCC(Nc2nc(Nc3ccc(OC4CCCC4)cc3)c3c(=O)[nH]cc(Br)c3n2)CC1 [Compound 237, 8-bromo-4-(4-(cyclopentyloxy)phenylamino)-2-(1-methylpiperidin-4-ylamino)pyrido[4,3-d]pyrimidin-5(6H)-one hydrochloride]
- IC50 ([2]; Homo sapiens, MV4-11, 72 h): 0.5 nM

Compound: CN1CCC(Nc2nc(Nc3ccc(Oc4cccc(F)c4)cc3)c3c(=O)[nH]cc(Br)c3n2)CC1.Cl [Compound 238, 8-bromo-4-(4-(3-fluorophenoxy)phenylamino)-2-(1-methylpiperidin-4-ylamino)pyrido[4,3-d]pyrimidin-5(6H)-one hydrochloride]
- IC50 [1]: 0.4 nM
- inhibition of kinase activity of FLT3 mutant D835Y (in words) [1]: strong inhibition
- IC50 ([2]; hydrochloride): 1.9 nM
- Means of Tumor Volume ([5]; day of treatment 1): 312.8 mm^3
- Means of Tumor Volume ([5]; day of treatment 4): 79.4 mm^3
- Percent Tumor Regression (PTR %) ([5]; day of treatment 4): 74.6%
- Means of Tumor Volume ([5]; day of treatment 7): 27.6 mm^3
- Percent Tumor Regression (PTR %) ([5]; day of treatment 7): 91.2%
- Means of Tumor Volume ([5]; day of treatment 11): 0 mm^3
- Percent Tumor Regression (PTR %) ([5]; day of treatment 11): 100%
- Means of Tumor Volume ([5]; day of treatment 14): 0 mm^3
- Percent Tumor Regression (PTR %) ([5]; day of treatment 14): 100%
- Means of Tumor Volume ([5]; day of treatment 17): 0 mm^3
- Percent Tumor Regression (PTR %) ([5]; day of treatment 17): 100%
- Means of Tumor Volume ([5]; day of treatment 21): 0 mm^3
- Percent Tumor Regression (PTR %) ([5]; day of treatment 21): 100%
- Means of Tumor Volume ([5]; day of treatment 25): 0 mm^3
- Percent Tumor Regression (PTR %) ([5]; day of treatment 25): 100%
- Means of Tumor Volume ([5]; day of treatment 28): 0 mm^3
- Percent Tumor Regression (PTR %) ([5]; day of treatment 28): 100%
- tumor regression (in words) ([5]; after 11 days of compound treatment): complete tumor regression
- IC50 [3]: 845 nM
- IC50 [4]: 1.4 nM
- inhibition of kinase activity of FLT3 wildtype (in words) [4]: strong inhibition

Compound: CN1CCC(Nc2nc(Nc3ccc(Oc4cccc(F)c4)cc3)c3c(=O)[nH]cc(Br)c3n2)CC1 [Compound 240, 8-bromo-4-((4-(3-fluorophenoxy)phenyl)amino)-2-((1-methylpiperidin-4-yl)amino) pyrido[4,3-d]pyrimidin-5(6H)-one]
- IC50 [1]: 1.3 nM
- IC50 [2]: 0.5 nM
- IC50 [3]: 599 nM
- IC50 [4]: 1.2 nM

Compound: CN1CCC(Nc2nc(Nc3ccc(Oc4ccc(F)c(F)c4)cc3)c3c(=O)[nH]cc(Br)c3n2)CC1 [Compound 241, 8-bromo-4-((4-(3,4-difluorophenoxy)phenyl)amino)-2-((1-methylpiperidin-4-yl)amino)pyrido[4,3-d]pyrimidin-5(6H)-one hydrochloride]
- IC50 [1]: 0.6 nM
- IC50 ([2]; Homo sapiens, MV4-11, 72 h): 0.9 nM
- IC50 [3]: 1050 nM
- IC50 [4]: 1.6 nM

Compound: CN1CCC(Nc2nc(Nc3cccc(Oc4ccccc4)c3)c3c(=O)[nH]cc(Br)c3n2)CC1 [Compound 246, 8-bromo-2-((1-methylpiperidin-4-yl)amino)-4-((3-phenoxyphenyl)amino)pyrido[4,3-d]pyrimidin-5(6H)-one]
- IC50 [1]: 1.7 nM
- IC50 ([2]; Homo sapiens, MV4-11, 72 h): 1.4 nM
- IC50 [3]: 260 nM
- IC50 [4]: 0.1 nM
